In US9763940B2, “Therapeutic use of P75 receptor antagonists” (Sanofi, priority 2011, dated 2017):
Where a name gives a salt, the structure may show the parent alone.

Experiments:
[1] = test system: SHR male rats, characterized by overactive bladder (OAB); test: Cystometry after acute oral treatment in SHR rats with spontaneous overactive bladder; type: in vivo, rat; conditions: % of control period, mean±SEM
Method: (§1) Male adult SHR/N Ico rats (250 g; Charles River Italy), were housed 7 days prior to the surgery with free access to standard chow and water. Animals were used in accordance with sanofi international ethical code and the international principles governing the care and treatment of laboratory animals, (E.E.E Council Directive 86/609, DJL358, 1 Cec. 12, 1987) in a fully accredited AAALAC facility.
(§2) A lower midline abdominal incision was performed under general anesthesia with 2-3% isoflurane using aseptic techniques. Their body temperature was maintained at 37° C. using a homeothermic blanket. Polyethylene tubing was inserted into the dome of the bladder and secured in place with a 6-0 nylon purse-string suture. The distal end of the tubing was sealed, tunneled subcutaneously, and externalized at the back of the neck, out of the animal's reach. At the moment of the surgery animals were 16 weeks old.
(§3) After one week from surgery, animals were placed in a Small Animal Cystometry Lab Station (MED Associates, St. Albans, Vt.) for urodynamic measurements. Prior to the start of recording the bladder was emptied and the catheter was connected via a T-tube to a pressure transducer and microinjection pump. Isotonic saline (0.9% NaCl at room temperature) was infused into the bladder at a rate of 10 ml per hour. An analytical balance beneath the wire-bottomed animal cage measured the amount of urine voided during continuous cystometry. A single cystometrogram is defined as the simultaneous recording of intravesical pressure, infused volume and voided volume during a single filling-voiding cycle. At least 4 reproducible micturition cycles are recorded (basal period) after the initial stabilization period of 25 to 30 minutes, using MED-CMG software (Catamount Research &Development Company).
Then, vehicle or compounds were administered orally at 2 ml/kg.
Due to kinetic profile of compounds, urodynamic assessment was performed 1 h after treatment and at least 4 reproducible micturition cycles were recorded.
The cystometrograms are analyzed using a specific software, SOF-552 cystometry data analysis.
The following endpoints have been considered (FIG. 1): • 1. Intercontraction intervals (sec) (ICI)—Time between micturition events (micturition interval) • 2. Threshold pressure (mmHg) (TP)—Bladder pressure immediately prior to micturition • 3. Maximum bladder pressure (mmHg) (Max P)—Highest bladder pressure associated with voiding • 4. Minimum bladder pressure (mmHg) (Min P)—Lowest bladder pressure during bladder filling • 5. Infused volume (μl) (Inf. Vol)—Volume of saline infused during the micturition cycle • 6. Average bladder pressure (mmHg) (Aver P)—Average bladder pressure during bladder filling Exclusion Criteria
In order to limit the impact of inter-group or intra-group variability, all data were expressed as % of control period (100%), as mean±standard error of mean (SEM) and were averaged per group of treatment. A one way analysis of variance (ANOVA), followed by Newman-Keuls' test or Dunnett's test, were used. A probability value of p<0.05 was regarded as significant.
Effects of an Acute Treatment with p75 Antagonists on Urodynamic Parameters in SHR Rats Characterized by Spontaneous Overactive Bladder (OAB)
• Vehicle: 0.5% Polysorbate 80 (PS80) solution in buffered methylcellulose (MC 0.6%) • Compound n°1 at 10 mg/kg: suspension (0.5% PS80 plus MC 0.6%) • Compound n°2 at 3, 10, 30 mg/kg: suspension (0.5% PS80 plus MC 0.6%) • Compound n°3 at 10 mg/kg: suspension (0.5% PS80 plus MC 0.6%) • Compound n°4 at 10 mg/kg: suspension (0.5% PS80 plus MC 0.6%) Experimental Design:
In order to investigate the role of compounds according to the invention in the micturition pathway, 5 groups of 4-12 rats are used: • Group 1, Vehicle per os (po) (n=10) • Group 2, Compound n°1 at 10 mg/kg po (n=12) • Group 3, Compound n°2 at 10 mg/kg po (n=6) • Group 4, Compound n°3 at 10 mg/kg po (n=4) • Group 5, Compound n°4 at 10 mg/kg po (n=5) […]

[2] = test system: SHR male rats, characterized by overactive bladder (OAB); test: Cystometry after one-week chronic treatment in SHR rats with spontaneous overactive bladder; type: in vivo, rat; conditions: 10 mg/kg po for 7 days
Method: as §1, §2, §3
The cystometrograms are analyzed using a specific software, SOF-552 cystometry data analysis. […]
In order to limit the impact of inter-group or intra-group variability, all data were expressed as % of control period (100%), as mean±standard error of mean (SEM) and were averaged per group of treatment. […]

[3] = 10 mg/kg po, 1 h after treatment, FIG. 2
[4] = 10 mg/kg po, 1 h after treatment, FIG. 3

## O=C(CN1CC2CCC(C1)N2c1ncc(F)cn1)N1CC=C(c2ccc(Cl)c(C(F)(F)F)c2)CC1 [compound n°1, 1-[4-(4-chloro-3-trifluoromethyl-phenyl)-3,6-dihydro-2H-pyridin-1-yl]-2-[8-(5-fluoro-pyrimidin-2-yl)-3,8-diaza-bicyclo[3.2.1]oct-3-yl]-ethanone]
[1]; [3]
  Intercontraction intervals (ICI): 195.5±15.4%
[1]; [4]
  Infused volume (bladder capacity): 194.9±15.3%

## C[C@@H]1CN(c2ccc(C(=O)O)cn2)C[C@H](C)N1CC(=O)N1CCc2nn(-c3ccccc3)cc2C1 [compound n°2, 6-{(3S,5R)-3,5-Dimethyl-4-[2-oxo-2-(2-phenyl-2,4,6,7-tetrahydropyrazolo[4,3-c]pyridin-5-yl)ethyl]piperazin-1-yl}nicotinic acid hydrochloride]
[1]; [3]
  Intercontraction intervals (ICI): 199.7±28.5%
[1]; [4]
  Infused volume (bladder capacity): 198.9±28.3%
[1]; dose response, 3 mg/kg po, FIG. 4
  Intercontraction intervals (ICI): 160.9±21.8%
[1]; dose response, 3 mg/kg po, FIG. 5
  Infused volume (bladder capacity): 160.8±21.7%
[1]; dose response, 10 mg/kg po, FIG. 4
  Intercontraction intervals (ICI): 199.7±28.5%
[1]; dose response, 10 mg/kg po, FIG. 5
  Infused volume (bladder capacity): 198.9±28.3%
[1]; dose response, 30 mg/kg po, FIG. 4
  Intercontraction intervals (ICI): 210.5±24.7%
[1]; dose response, 30 mg/kg po, FIG. 5
  Infused volume (bladder capacity): 209.9±24.5%
[2]; SHR rats
  Effect on micturition pressure parameters: no effect
[2]; cystometry 24 h after last treatment, % of control values, mean±SEM, FIG. 6
  Intercontraction intervals (ICI): 173.8±21.1%
[2]; cystometry 24 h after last treatment, % of control values, mean±SEM, FIG. 7
  Infused volume (bladder capacity): 173.7±21.1%

## C[C@@H]1CN(c2ccc(C(=O)O)cn2)C[C@H](C)N1CC(=O)N1CC=C(c2cccc3ccoc23)CC1 [compound n°3, 6-{(3S,5R)-4-[2-(4-benzofuran-7-yl-3,6-dihydro-2H-pyridin-1-yl)-2-oxoethyl]-3,5-dimethylpiperazin-1-yl}nicotinic acid]
[1]; [3]
  Intercontraction intervals (ICI): 167.2±20.3%
[1]; [4]
  Infused volume (bladder capacity): 167.14±20%

## O=C(CN1CC2CCC(C1)N2c1cccnc1)N1CCc2nn(-c3ccccc3)cc2C1 [compound n°4, 1-(2-phenyl-2,4,6,7-tetrahydropyrazolo[4,3-c]pyridin-5-yl)-2-(8-pyridin-3-yl-3,8-diazabicyclo[3.2.1]oct-3-yl)ethanone]
[1]; [3]
  Intercontraction intervals (ICI): 186.3±26.9%
[1]; [4]
  Infused volume (bladder capacity): 186.2±26.9%
